Columns and labels:
TK-10 = assay: cells; format: cell-based
OVCAR-3 = assay: cells; format: cell-based; conditions: OVCAR-3 (Ovarian Cancer), 10 μM, 48 hours
A549/ATCC = assay: cells; format: cell-based
OVCAR-5 = assay: cells; format: cell-based
Solubility in DMSO = format: physicochemical; conditions: order SJ-2<SJ-24<SJ-3<SJ-11
From the text: The solubility of the four compounds in DMSO is poor, SJ-2<SJ-24<SJ-3<SJ-11, and therefore it is estimated and this is the reason why the three compounds which have previously proven to be effective against PC-3 cell line by SRB assays are ineffective in this experiment.

SK-MEL-28 = assay: cells; format: cell-based
NCI-H522 = assay: cells; format: cell-based
786-0 = assay: cells; format: cell-based
SK-MEL-5 = assay: cells; format: cell-based
HCT-15 = assay: cells; format: cell-based
MDA-MB-435 = assay: cells; format: cell-based
HS 578T = assay: cells; format: cell-based
HT29 = assay: cells; format: cell-based
RXF 393 = assay: cells; format: cell-based; conditions: RXF 393 (Renal Cancer), 10 μM, 48 hours
MOLT-4 = assay: cells; format: cell-based
IGROV1 = assay: cells; format: cell-based
HCT-116 = assay: cells; format: cell-based
SF-268 = assay: cells; format: cell-based
UACC-257 = assay: cells; format: cell-based
NCI/ADR-RES = assay: cells; format: cell-based
UO-31 = assay: cells; format: cell-based
HOP-92 = assay: cells; format: cell-based; conditions: Non-Small Cell Lung Cancer HOP-92
KM12 = assay: cells; format: cell-based
HL-60 (TB) = assay: cells; format: cell-based; conditions: HL-60 (TB) (Leukemia), 10 μM, 48 hours
SK-MEL-2 = assay: cells; format: cell-based; conditions: Melanoma SK-MEL-2
NCI-H23 = assay: cells; format: cell-based
HOP-62 = assay: cells; format: cell-based
CAKI-1 = assay: cells; format: cell-based
RPMI-8226 = assay: cells; format: cell-based
BT-549 = assay: cells; format: cell-based
HCC-2998 = assay: cells; format: cell-based
CCRF-CEM = assay: cells; format: cell-based
[1] = Homo sapiens, Non-Small Cell Lung Cancer A549/ATCC
[2] = Homo sapiens, Colon Cancer HCT-116
[3] = Homo sapiens, CNS Cancer SF-268
[4] = Homo sapiens, Non-Small Cell Lung Cancer NCI-H23
[5] = Homo sapiens, Non-Small Cell Lung Cancer HOP-62

CCN(CC)CCNc1nc2ccccc2c2c1-c1ccc(Cl)cc1C2=O [SJ-3, 6-(2-(Diethylamino)ethylamino)-9-chloro-11H-indeno[1,2-c]quinolin-11-one]
GI50 (TK-10; Homo sapiens, Renal Cancer TK-10): 24.6 µM | CC50 (TK-10; Homo sapiens, Renal Cancer TK-10, read-out: LC50 (the source's name)): 6.38 µM | TGI (TK-10; Renal Cancer TK-10): 3.70 µM | growth percentage (TK-10; TK-10 (Renal Cancer), 10 μM, 48 hours): 95.55% | growth percentage (OVCAR-3): 73.13% | growth percentage (A549/ATCC; A549/ATCC (Non-Small Cell Lung Cancer), 10 μM, 48 hours): 51.79% | GI50 (A549/ATCC; [1]): 15.2 µM | LC50 (50% lethal concentration) (A549/ATCC; [1]): 6.72 µM | TGI (A549/ATCC; Non-Small Cell Lung Cancer A549/ATCC): 3.51 µM | GI50 (OVCAR-5; Homo sapiens, Ovarian Cancer OVCAR-5): 21.5 µM | CC50 (OVCAR-5; Homo sapiens, Ovarian Cancer OVCAR-5, read-out: LC50 (the source's name)): 6.52 µM | growth percentage (OVCAR-5; OVCAR-5 (Ovarian Cancer), 10 μM, 48 hours): 89.34% | TGI (OVCAR-5; Ovarian Cancer OVCAR-5): 3.32 µM | solubility in DMSO (Solubility in DMSO): poor | GI50 (SK-MEL-28; Homo sapiens, Melanoma SK-MEL-28): 6 µM | CC50 (SK-MEL-28; Homo sapiens, Melanoma SK-MEL-28, read-out: LC50 (the source's name)): 5.83 µM | TGI (SK-MEL-28; Melanoma SK-MEL-28): 3.21 µM | growth percentage (SK-MEL-28; SK-MEL-28 (Melanoma), 10 μM, 48 hours): 87.40% | GI50 (NCI-H522; Homo sapiens, Non-Small Cell Lung Cancer NCI-H522): 27.6 µM | CC50 (NCI-H522; Homo sapiens, Non-Small Cell Lung Cancer NCI-H522, read-out: LC50 (the source's name)): 7.23 µM | growth percentage (NCI-H522; NCI-H522 (Non-Small Cell Lung Cancer), 10 μM, 48 hours): 77.39% | TGI (NCI-H522; Non-Small Cell Lung Cancer NCI-H522): 3.80 µM | growth percentage (786-0; 786-0 (Renal Cancer), 10 μM, 48 hours): 74.13% | GI50 (786-0; Homo sapiens, 786-0, Renal Cancer 786-O): 26.8 µM | CC50 (786-0; Homo sapiens, 786-0, Renal Cancer 786-O, read-out: LC50 (the source's name)): 6.01 µM | TGI (786-0; Renal Cancer 786-O): 3.29 µM | GI50 (SK-MEL-5; Homo sapiens, Melanoma SK-MEL-5): 1.15 µM | TGI (SK-MEL-5; Melanoma SK-MEL-5): 2.61 µM | growth percentage (SK-MEL-5; SK-MEL-5 (Melanoma), 10 μM, 48 hours): 82.51% | TGI (HCT-15; Colon Cancer HCT-15): 3.51 µM | growth percentage (HCT-15; HCT-15 (Colon Cancer), 10 μM, 48 hours): 50.38% | GI50 (HCT-15; Homo sapiens, Colon Cancer HCT-15): 4.37 µM | CC50 (HCT-15; Homo sapiens, Colon Cancer HCT-15, read-out: LC50 (the source's name)): 7.5 µM | GI50 (MDA-MB-435; Homo sapiens, Melanoma MDA-MB-435): 20.2 µM | CC50 (MDA-MB-435; Homo sapiens, Melanoma MDA-MB-435, read-out: LC50 (the source's name)): 7.62 µM | growth percentage (MDA-MB-435; MDA-MB-435 (Melanoma), 10 μM, 48 hours): 92.72% | TGI (MDA-MB-435; Melanoma MDA-MB-435): 3.86 µM | TGI (HS 578T; Breast Cancer HS 578T): 10.00 µM | growth percentage (HS 578T; HS 578T (Breast Cancer), 10 μM, 48 hours): 84.70% | GI50 (HS 578T; Homo sapiens, Breast Cancer HS 578T): 19.3 µM | CC50 (HS 578T; Homo sapiens, Breast Cancer HS 578T, read-out: LC50 (the source's name)): 46.1 µM | TGI (HT29; Colon Cancer HT29): 3.16 µM | growth percentage (HT29; HT29 (Colon Cancer), 10 μM, 48 hours): 9.75% | GI50 (HT29; Homo sapiens, HT-29, Colon Cancer HT29): 4.23 µM | CC50 (HT29; Homo sapiens, HT-29, Colon Cancer HT29, read-out: LC50 (the source's name)): 6.28 µM | growth percentage (RXF 393): 51.90% | GI50 (MOLT-4; Homo sapiens, Leukemia MOLT-4): 6.24 µM | LC50 (concentration killing 50% of cells) (MOLT-4; Homo sapiens, Leukemia MOLT-4): 7.91 µM | TGI (MOLT-4; Leukemia MOLT-4): 3.43 µM | growth percentage (MOLT-4; MOLT-4 (Leukemia), 10 μM, 48 hours): 34.63% | GI50 (IGROV1; Homo sapiens, IGROV-1, Ovarian Cancer IGROV1): 11.2 µM | CC50 (IGROV1; Homo sapiens, IGROV-1, Ovarian Cancer IGROV1, read-out: LC50 (the source's name)): 7.82 µM | growth percentage (IGROV1; IGROV1 (Ovarian Cancer), 10 μM, 48 hours): 43.43% | TGI (IGROV1; Ovarian Cancer IGROV1): 3.62 µM | TGI (HCT-116; Colon Cancer HCT-116): 3.19 µM | growth percentage (HCT-116; HCT-116 (Colon Cancer), 10 μM, 48 hours): 36.96% | GI50 (HCT-116; [2]): 6.19 µM | LC50 (50% lethal concentration) (HCT-116; [2]): 6.06 µM | TGI (SF-268; CNS Cancer SF-268): 3.27 µM | GI50 (SF-268; [3]): 17.7 µM | LC50 (SF-268; [3]): 6.52 µM | growth percentage (SF-268; SF-268 (CNS Cancer), 10 μM, 48 hours): 65.88% | GI50 (UACC-257; Homo sapiens, Melanoma UACC-257): 21.2 µM | CC50 (UACC-257; Homo sapiens, Melanoma UACC-257, read-out: LC50 (the source's name)): 6.37 µM | TGI (UACC-257; Melanoma UACC-257): 3.39 µM | growth percentage (UACC-257; UACC-257 (Melanoma), 10 μM, 48 hours): 92.18% | GI50 (NCI/ADR-RES; Homo sapiens, Ovarian Cancer NCI/ADR-RES): 19.3 µM | CC50 (NCI/ADR-RES; Homo sapiens, Ovarian Cancer NCI/ADR-RES, read-out: LC50 (the source's name)): 7.41 µM | growth percentage (NCI/ADR-RES; NCI/ADR-RES (Ovarian Cancer), 10 μM, 48 hours): 69.55% | TGI (NCI/ADR-RES; Ovarian Cancer NCI/ADR-RES): 3.67 µM | GI50 (UO-31; Homo sapiens, Renal Cancer UO-31): 3.61 µM | CC50 (UO-31; Homo sapiens, Renal Cancer UO-31, read-out: LC50 (the source's name)): 6.48 µM | TGI (UO-31; Renal Cancer UO-31): 2.88 µM | growth percentage (UO-31; UO-31 (Renal Cancer), 10 μM, 48 hours): 25.86% | GI50 (HOP-92; Homo sapiens): 3.08 µM | LC50 (HOP-92; Homo sapiens): 25.1 µM | TGI (HOP-92): 5.80 µM | TGI (KM12; Colon Cancer KM12): 3.11 µM | GI50 (KM12; Homo sapiens, Colon Cancer KM12): 6.48 µM | CC50 (KM12; Homo sapiens, Colon Cancer KM12, read-out: LC50 (the source's name)): 5.96 µM | growth percentage (KM12; KM12 (Colon Cancer), 10 μM, 48 hours): 53.42% | growth percentage (HL-60 (TB)): 94.33% | GI50 (SK-MEL-2; Homo sapiens): 37.7 µM | CC50 (SK-MEL-2; Homo sapiens, read-out: LC50 (the source's name)): 10.4 µM | TGI (SK-MEL-2): 4.73 µM | GI50 (NCI-H23; [4]): 2.63 µM | LC50 (NCI-H23; [4]): 8.35 µM | growth percentage (NCI-H23; NCI-H23 (Non-Small Cell Lung Cancer), 10 μM, 48 hours): 80.63% | TGI (NCI-H23; Non-Small Cell Lung Cancer NCI-H23): 4.00 µM | growth percentage (HOP-62; HOP-62 (Non-Small Cell Lung Cancer), 10 μM, 48 hours): 24.86% | GI50 (HOP-62; [5]): 4.51 µM | LC50 (50% lethal concentration) (HOP-62; [5]): 5.74 µM | TGI (HOP-62; Non-Small Cell Lung Cancer HOP-62): 2.83 µM | growth percentage (CAKI-1; CAKI-1 (Renal Cancer), 10 μM, 48 hours): 64.35% | GI50 (CAKI-1; Homo sapiens, Renal Cancer CAKI-1): 14.8 µM | CC50 (CAKI-1; Homo sapiens, Renal Cancer CAKI-1, read-out: LC50 (the source's name)): 6.8 µM | TGI (CAKI-1; Renal Cancer CAKI-1): 3.26 µM | GI50 (RPMI-8226; Homo sapiens, Leukemia RPMI-8226): 20.2 µM | CC50 (RPMI-8226; Homo sapiens, Leukemia RPMI-8226, read-out: LC50 (the source's name)): 9.73 µM | TGI (RPMI-8226; Leukemia RPMI-8226): 4.31 µM | growth percentage (RPMI-8226; RPMI-8226 (Leukemia), 10 μM, 48 hours): 81.94% | growth percentage (BT-549; BT-549 (Breast Cancer), 10 μM, 48 hours): 87.48% | TGI (BT-549; Breast Cancer BT-549): 9.50 µM | GI50 (BT-549; Homo sapiens, Breast Cancer BT-549): 32.5 µM | CC50 (BT-549; Homo sapiens, Breast Cancer BT-549, read-out: LC50 (the source's name)): 45.5 µM | TGI (HCC-2998; Colon Cancer HCC-2998): 4.08 µM | growth percentage (HCC-2998; HCC-2998 (Colon Cancer), 10 μM, 48 hours): 88.65% | GI50 (HCC-2998; Homo sapiens, Colon Cancer HCC-2998): > 100 µM | CC50 (HCC-2998; Homo sapiens, Colon Cancer HCC-2998, read-out: LC50 (the source's name)): 7.94 µM | growth percentage (CCRF-CEM; CCRF-CEM (Leukemia), 10 μM, 48 hours): 42.00% | GI50 (CCRF-CEM; Homo sapiens, Leukemia CCRF-CEM): 8.24 µM | CC50 (CCRF-CEM; Homo sapiens, Leukemia CCRF-CEM, read-out: LC50 (the source's name)): 7.8 µM | TGI (CCRF-CEM; Leukemia CCRF-CEM): 3.50 µM
